According to patent publication US12371454B2, “Cyclic peptide compound having Kras inhibitory action” (priority 2019, dated 2025):
Starred links: 1 amine or outer side, 2 acyl side, 3 side chain; linkers in the order of their positions; H or OH if unused. Positions of bridges follow the written chain, without caps; N, C: chain ends. Non-standard residues stand in square brackets, D forms with d. Residues, ends and D or L forms follow the SMILES beside them. *: point of attachment. hPhe(3,5-F2-4-CF3) = N[C@@H](CCc1cc(F)c(C(F)(F)F)c(F)c1)C(=O)O; hPhe(3-Cl-4-CF3) = N[C@@H](CCc1ccc(C(F)(F)F)c(Cl)c1)C(=O)O; hPhe(3-F,4-CF3) = N[C@@H](CCc1ccc(C(F)(F)F)c(F)c1)C(=O)O; NMePhe(4-CF3) = CN[C@@H](Cc1ccc(C(F)(F)F)cc1)C(=O)O; NMePhe(4-Cl) = CN[C@@H](Cc1ccc(Cl)cc1)C(=O)O; NMePhe(4-Me) = CN[C@@H](Cc1ccc(C)cc1)C(=O)O; NMePhe(4-F) = CN[C@@H](Cc1ccc(F)cc1)C(=O)O; X31 = O=C([C@H](Cc1ccc(Cl)s1)N[*:1])[*:2]; NMeGly(cPent) = CN[C@H](C(=O)O)C1CCCC1; Phe(3-I) = N[C@@H](Cc1cccc(I)c1)C(=O)O; Pro(4,4-F2) = O=C(O)[C@@H]1CC(F)(F)CN1; NMeCha = CN[C@@H](CC1CCCCC1)C(=O)O; Hyp = O=C(O)[C@@H]1C[C@@H](O)CN1; NEtLeu = CCN[C@@H](CC(C)C)C(=O)O; NMeChg = CN[C@H](C(=O)O)C1CCCCC1; NMeI = CC[C@H](C)[C@H](NC)C(=O)O; NMeD = CN[C@@H](CC(=O)O)C(=O)O; NMeL = CN[C@@H](CC(C)C)C(=O)O; d(β3hA) = C[C@@H](N)CC(=O)O; Morpholide = C1CN(*)CCO1; NMeA = CN[C@@H](C)C(=O)O; NMeAib = CNC(C)(C)C(=O)O; Nle = CCCC[C@H](N)C(=O)O; Piperidide = C1CCN(*)CC1; Pra = C#CC[C@H](N)C(=O)O; Pyrrolidide = C1CCN(*)C1; Ac5c = NC1(C(=O)O)CCCC1; Aze = O=C(O)[C@@H]1CCN1; Sar = CNCC(=O)O

These compounds were tested against T1, Kras and SOS1 (biotin-tagged human Kras loaded with GDP, His-tagged human SOS1) (Homo sapiens, UniProt P01116, G12D) (assay: Protein-protein interaction inhibition between Kras and SOS1 (KrasGl2D-SOS PPI) using AlphaScreen). Details: AlphaScreen; biotin-tagged human Kras loaded with GDP, His-tagged human SOS1; read-out: KRAS G12D-SOS PPI IC50.
T1 construct: made in house; host or cells: E. coli (stated for Kras only)
T1 sequence (P01116 1-188 isoform P01116-2 G12D): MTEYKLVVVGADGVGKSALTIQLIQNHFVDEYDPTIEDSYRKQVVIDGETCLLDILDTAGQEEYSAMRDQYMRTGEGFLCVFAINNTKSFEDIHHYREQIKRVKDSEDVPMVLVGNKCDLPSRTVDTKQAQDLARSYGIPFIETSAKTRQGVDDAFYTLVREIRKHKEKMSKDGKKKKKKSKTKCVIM
Assay type: binding
In short: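 Energy transfer from nickel-chelate donor beads bound to His-SOS1 to streptavidin acceptor beads bound to biotin-Kras, expressed in E. coli and loaded with GDP after purification, was monitored. Donors were excited at 680 nm; singlet oxygen reaching acceptors gave emission read at 520-620 nm.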
For `CCCC[C@@H]1NC(=O)[C@H](Cc2ccc(Cl)s2)NC(=O)CN(C)C(=O)[C@H](Cc2ccc(Cl)cc2)N(C)C(=O)CN(C)C(=O)CN(C)C(=O)[C@H]([C@@H](C)CC)NC(=O)[C@H](CC(C)C)N(C)C(=O)C[C@@H](C(=O)N2CCCCC2)N(C)C(=O)[C@H](CC(C)C)NC(=O)C(C)(C)N(C)C1=O` [Compound 1318] ([NMeL]I[Sar][Sar][NMePhe(4-Cl)][Sar][X31][Nle][NMeAib]L[NMeD]-Piperidide; lactam N-11), the IC50 was 78 nM.
Work on `CC[C@H](C)[C@@H]1NC(=O)[C@H](CC(C)C)N(CC)C(=O)C[C@@H](C(=O)N(C)C)N(C)C(=O)[C@H](C2CCCC2)N(C)C(=O)C2(CCCC2)NC(=O)[C@@H]2CCCN2C(=O)[C@H](CCc2ccc(C(F)(F)F)c(F)c2)NC(=O)CN(C)C(=O)[C@H](CC2CCCCC2)N(C)C(=O)[C@@H]2CCN2C(=O)[C@H](C)N(C)C1=O` [Compound 1324] ([NEtLeu]I[NMeA][Aze][NMeCha][Sar][hPhe(3-F,4-CF3)]P[Ac5c][NMeGly(cPent)][NMeD]-NMe2; lactam N-11) yielded an IC50 of 1.2 nM.
`C#CC[C@@H]1NC(=O)[C@H](Cc2cccc(I)c2)NC(=O)CN(C)C(=O)[C@H](Cc2ccc(F)cc2)N(C)C(=O)CN(C)C(=O)CN(C)C(=O)[C@H]([C@@H](C)CC)NC(=O)[C@H](CC(C)C)N(C)C(=O)C[C@@H](C(=O)N2CCCCC2)N(C)C(=O)[C@H](CC(C)C)NC(=O)C(C)(C)N(C)C1=O` [Compound 1327] ([NMeL]I[Sar][Sar][NMePhe(4-F)][Sar][Phe(3-I)][Pra][NMeAib]L[NMeD]-Piperidide; lactam N-11) was tested, and the IC50 was 72 nM.
`CC[C@H](C)[C@@H]1NC(=O)[C@H](CC(C)C)N(C)C(=O)C[C@@H](C)NC(=O)[C@H](C2CCCC2)N(C)C(=O)C2(CCCC2)NC(=O)[C@@H](C)NC(=O)[C@H](CCc2ccc(C(F)(F)F)c(Cl)c2)NC(=O)CN(C)C(=O)[C@H](Cc2ccc(C)cc2)N(C)C(=O)[C@@H]2CCN2C(=O)[C@H](C)N(C)C1=O` [Compound 1328] (cyclo([Ac5c][NMeGly(cPent)][d(β3hA)][NMeL]I[NMeA][Aze][NMePhe(4-Me)][Sar][hPhe(3-Cl-4-CF3)][dA])) showed an IC50 of 220 nM.
`CCO[C@@H]1C[C@H]2C(=O)NC3(CCCC3)C(=O)N(C)[C@@H]([C@@H](C)CC)C(=O)N(C)[C@H](C(=O)N3CCOCC3)CC(=O)N(C)[C@@H](CC(C)C)C(=O)N[C@@H]([C@@H](C)CC)C(=O)N(C)[C@@H](C)C(=O)N3CC[C@H]3C(=O)N(C)[C@@H](Cc3ccc(C(F)(F)F)cc3)C(=O)N(C)CC(=O)N[C@@H](CCc3ccc(C(F)(F)F)c(Cl)c3)C(=O)N2C1` [Compound 1330] ([NMeL]I[NMeA][Aze][NMePhe(4-CF3)][Sar][hPhe(3-Cl-4-CF3)][Hyp](Et)[Ac5c][NMeI][NMeD]-Morpholide; lactam N-11) showed an IC50 of 0.62 nM.
Compound `CC[C@H](C)[C@@H]1NC(=O)[C@H](CC(C)C)N(C)C(=O)C[C@@H](C(=O)N2CCOCC2)N(C)C(=O)[C@H](C2CCCCC2)N(C)C(=O)C2(CCCC2)NC(=O)[C@@H]2CCCN2C(=O)[C@H](CCc2ccc(C(F)(F)F)c(Cl)c2)NC(=O)CN(C)C(=O)[C@H](CC2CCCCC2)N(C)C(=O)CN(C)C(=O)CN(C)C1=O` [Compound 1333] ([NMeL]I[Sar][Sar][NMeCha][Sar][hPhe(3-Cl-4-CF3)]P[Ac5c][NMeChg][NMeD]-Morpholide; lactam N-11) has an IC50 of 0.48 nM.
`CC[C@H](C)[C@@H]1NC(=O)[C@H](CC(C)C)N(C)C(=O)C[C@@H](C(=O)N2CCOCC2)N(C)C(=O)[C@H](C2CCCCC2)N(C)C(=O)C2(CCCC2)NC(=O)[C@@H]2CC(F)(F)CN2C(=O)[C@H](CCc2cc(F)c(C(F)(F)F)c(F)c2)NC(=O)CN(C)C(=O)[C@H](CC2CCCCC2)N(C)C(=O)CN(C)C(=O)CN(C)C1=O` [Compound 1337] ([NMeL]I[Sar][Sar][NMeCha][Sar][hPhe(3,5-F2-4-CF3)][Pro(4,4-F2)][Ac5c][NMeChg][NMeD]-Morpholide; lactam N-11) showed an IC50 of 0.55 nM.
Compound `CC[C@H](C)[C@@H]1NC(=O)[C@H](CC(C)C)N(C)C(=O)C[C@@H](C(=O)N2CCCC2)N(C)C(=O)[C@H](C2CCCC2)N(C)C(=O)C2(CCCC2)NC(=O)[C@@H]2CCCN2C(=O)[C@H](CCc2cc(F)c(C(F)(F)F)c(F)c2)NC(=O)CN(C)C(=O)[C@H](CC2CCCCC2)N(C)C(=O)CN(C)C(=O)CN(C)C1=O` [Compound 1342] ([NMeL]I[Sar][Sar][NMeCha][Sar][hPhe(3,5-F2-4-CF3)]P[Ac5c][NMeGly(cPent)][NMeD]-Pyrrolidide; lactam N-11) has an IC50 of 0.53 nM.
With `CC[C@H](C)[C@@H]1NC(=O)[C@H](CC(C)C)N(C)C(=O)C[C@@H](C(=O)N2CCCC2)N(C)C(=O)[C@H]([C@@H](C)CC)N(C)C(=O)C2(CCCC2)NC(=O)[C@@H]2CCCN2C(=O)[C@H](CCc2cc(F)c(C(F)(F)F)c(F)c2)NC(=O)CN(C)C(=O)[C@H](Cc2ccc(C(F)(F)F)cc2)N(C)C(=O)[C@@H]2CCN2C(=O)[C@H](C)N(C)C1=O` [Compound 1343] ([NMeL]I[NMeA][Aze][NMePhe(4-CF3)][Sar][hPhe(3,5-F2-4-CF3)]P[Ac5c][NMeI][NMeD]-Pyrrolidide; lactam N-11) the IC50 was 0.61 nM.
